# Experimental data from article PMC11329504, “Identification of novel small molecule-based strategies of COL7A1 upregulation and readthrough activity for the treatment of recessive dystrophic epidermolysis bullosa” (Scientific Reports, 2024).
# Assays:
# [1] = tested on: total (truncated + full length) C7 in RDEB_L1 cells; experiment: AlphaLISA quantification of total C7 in RDEB_L1 cells; assay type: cell-based, human; settings: 20 ng/mL TGFß2; for EC50: Homo sapiens, total C7 AlphaLISA, 48 h, mean ± SD, read-out: Increase in C7 levels EC50(rel)
# Procedure: (§1) The AlphaLISA assay was developed in-house by using the biotin-conjugated rabbit polyclonal antibody anti-C7 (LSBio LS-298147) and conjugating the acceptor beads (PerkinElmer 6772001) to a monoclonal anti-Collagen type VII antibody produced in mouse, clone LH7.2 (Thermo MA5-13,432). Formulation of the mAb clone LH7.2 was exchanged to PBS and concentrated 5 × by using Amicon® Ultra-0.5 centrifugal filters up to 1 mg/ml. The conjugation procedure was carried out according to the protocol provided by PerkinElmer.
# (§2) For compound treatment in RDEB patient-derived transformed keratinocytes, 5,000 cells were plated in 20 µL of supplemented KGM media containing 20 ng/mL TGFβ2 (SIGMA GF113) without GA-1000 in 384-well cell culture plates (Greiner 781098). The day after, 5 µL of test compounds prepared 5 × in supplemented KGM without GA-1000 were added over cells and incubated for 48 h at 37 °C and 5% CO2. For compound treatment in HEK293^R578X, 10,000 cells were plated in 20 μL of DMEM (High Glucose, 2 mM L-Glutamine, sodium pyruvate, and FBS 10%) in 384-well cell culture plates (Greiner 781,098,). The day after, 5 μL of test compounds prepared 5 × in DMEM complete medium were added over cells and incubated for 48 h at 37 °C and 5% CO2.
# (§3) After the treatment process, 2.5 µL of RIPA buffer 10 x (Abcam ab156034) were added over the […] of cells for 20 min at room temperature to obtain a complete cell lysis. Then, 2 μL of sample (i.e., cell lysate with supernatant) were transferred to the AlphaLISA plate (PerkinElmer 6,059,340) containing […] of antibodies mixture ([…] of acceptor Beads-Ab and […] of biotin-rAb) prepared in AlphaLISA buffer 1 x (PerkinElmer AL00F). The reaction was incubated for 90 min at room temperature. Finally, 10 μL of […] of donor beads (PerkinElmer 6760002,) were added to the reaction under subdued light, mixed gently, and incubated for 3 h at room temperature. AlphaLISA signal was detected with an Envision microplate reader (Perkin Elmer) using the following setting: Filter: AlphaScreen, Excitation time: 180 ms, Integration time: 300 ms.
# (§4) Statistical analyses were performed using GraphPad Prism v. 7.04 (La Jolla, California). Results are shown as mean ± SD of experimental replicates. Dose–response curves to assess compound treatment effect were plotted in a four-parameter logistic model. Relative EC50, representing the total drug concentration producing a 50% effect, was calculated in the four-parameter logistic equation. Comparisons of collagen protein and mRNA expression in different experimental conditions were made using ANOVA, followed by a post hoc test. statistical significance was considered with p values < 0.05.
# [2] = tested on: total C7 in HEK293^R578X cells; experiment: AlphaLISA quantification of total C7 in recombinant HEK293^R578X cells; assay type: cell-based, human; settings: for Increase in C7 levels Emax, % vs baseline: at 100 µM
# Procedure: as §1, §2, §3, §4
# [3] = tested on: truncated and full-length C7 in RDEB_L1, RDEB_L5 and HEK293^R578X cells; experiment: Western blot detection of truncated and full-length C7; assay type: cell-based, human; settings: RDEB_L1 and HEK293^R578X cells; 50 μM compound 7, 50 μM chuangxinmycin, 100 μM 3-methyl-chuangxinmycin
# Procedure: For western blot, RDEB or normal human keratinocytes were lysed in protein extraction buffer (50 mM Tris–HCl [pH 7.5], 100 mM NaCl, 1% Nonidet P-40, and 4 mM EDTA) containing proteinase inhibitors cocktail (Complete Mini, EDTA free; Roche Diagnostics, Mannheim, Germany). Lysates were incubated for 30 min on ice and centrifuged at 15,000 g for 30 min at 4 °C. Supernatants were then collected and concentrated by ultrafiltration using Amicon Ultra columns (10 kDa; Millipore, Ireland). Protein concentrations were measured using the Bradford assay (Bio-Rad, Hercules, CA). For each sample, […] total protein was resolved on NuPAGE Novex 3%–8% Tris–Acetate gel electrophoresis (Invitrogen, Carlsbad, CA) and electrotransferred to nitrocellulose membranes (Invitrogen, Carlsbad, CA). For type VII collagen analysis, blots were probed with a monospecific polyclonal anti-C7 antibody (a generous gift from Dr. A. Nystrom, University of Freiburg). Invitrogen anti-MDH1 polyclonal antibody (PA550446, 1:1000) was used to detect MDH1. Standard antibodies against a reference protein were used as a loading control, as indicated. Visualization of the resulting signal was performed by incubating with horseradish peroxidase (HRP)- conjugated anti-rabbit antibody (Amersham, Burlington, MA) and West Pico Chemiluminescent Substrate (Pierce, Rockford, IL).
# [4] = tested on: RDEB_L1 cells; experiment: RNAseq (HTPathwaySeq) transcriptomic profiling, GSEA; assay type: cell-based, human; settings: 24 h, 20 ng/mL TGFβ2, compound 7 and 8 at the highest concentrations tested of 100 and 300 µM
# Procedure: The […]®) analysis was conducted at […], Belgium) using samples provided by Almirall. A total of 376 cell lysate samples representing 4 biological replicates of 94 samples were provided to […] in four 96-well plates. On each 96-well plate, two empty wells were allocated to include […] reference samples. Samples from the same biological group were distributed over the different plates to not confound inter-plate variability with biological signal. […] The compounds were evaluated in RDEB_L1 cells in the presence of 20 ng/mL TGFβ2 to mimic RDEB physiology and in normal human keratinocytes with no TGFβ2 treatment. Cells were treated during 24 h. Controls for RDEB_L1 cells not treated with TGFβ2 and RDEB_L1 and NHK cells treated with DMSO in the absence of compounds were also included. The conditions of the assay were identical to those described for the Real-time quantitative RT-PCR (see above). For the […], over 460 M reads were generated for 376 samples of interest, resulting in about 1.22 M reads per sample on average. […] is based on a 3'-end library preparation method, and gene body read coverage is concentrated towards the 3'-end of the genes. For quality control, a selection of lysate samples was checked for gDNA contamination and RNA content using qPCR before library preparation. RNA samples were processed to generate RNA-sequencing libraries using […] procedure based on the QuantSeq (Lexogen) 3'-end library preparation workflow. The quality of a selection of samples was assessed with the 2100 Bioanalyzer instrument (Agilent). Libraries were quantified using qPCR and pooled for single-end sequencing on a NextSeq 500 (Illumina) according to […] standard operating procedure. Raw reads were mapped to the human genome (hg38) and gene expression was quantified based on the Ensembl transcriptome annotation (version 85) using […]. Raw counts were normalized using […]2 prior to differential gene expression analysis. For each cell line, samples were clustered based on log-transformed normalized counts using tSNE. A perplexity parameter of 35 and a maximum number of 1000 iterations were applied. Genes with more than 10 normalized counts in at least 3 samples were used as input. Analysis was run in R (v3.2) with a fixed seed. […] For each contrast, genes ranked by fold change were used as input. PCA was applied on the fold changes of each compound vs their associated vehicle using the 500 genes with the greatest variance. Arrows connect the different incremental dosages used on each compound to observe their differentiation patterns. Pathway enrichment and PCA were performed using R v.3.2. Pathway enrichment was analyzed with cluster profile package. The procedure followed for the cell treatments of RDEB-L1 and NHEK, was the same as that used in the RT-qPCR study. Cell lysis and sample preparation were conducted according to […] instructions: Plates of treated cells were centrifuged for 5 min at 600 g at 4 °C, and the medium was carefully removed to avoid disturbing the cells. Then, cells were washed in PBS, centrifuged and the PBS was removed again. […] After checking that cells were lysed, the samples were transferred to 96-well PCR plates, and then sealed and stored at -80 °C to be sent to […].
# [5] = tested on: total (truncated + full length) C7 in RDEB_L5 cells; experiment: AlphaLISA quantification of total C7 in RDEB_L5 cells; assay type: cell-based, human
# Procedure: as §1, §2, §3, §4
# [6] = tested on: NHK cells; experiment: Cytotoxicity, ATP levels, normal human keratinocytes (NHK); assay type: cell-based; settings: NHK cells, ATP levels, at 50 µM
# Procedure: (§5) The viability of RDEB patient-derived cell lines or NHK was evaluated by measuring the ATP levels as an indirect readout of the potential cytotoxicity effect of compounds. Cells were plated and treated exactly with the same conditions as those followed in the AlphaLISA assay, described above. To measure ATP levels, cells were processed using the ATPlite™ 1step luminescence-based assay (PerkinElmer 6,016,731), following the manufacturer’s protocol. 25 μL of ATPlite™ reagent was added directly over cells and plates were covered with a sealing film and shaken for 25 min using a microtiter plate shaker. Luminescence was measured in a Luminoskan Ascent luminometer (Thermo Fisher Scientific). 10 μM of Staurosporine was used as a reference compound and control for the total cytotoxicity.
# [7] = as above; assay type: cell-based; settings: human, normal human keratinocytes (NHK); NHK cells, ATP levels; read-out: Cytotox. IC50
# Procedure: as §5
# [8] = target: T1, A2A (Homo sapiens, UniProt P29274); experiment: Selectivity panel (Eurofins): A2A adenosine receptor; assay type: binding; settings: Table 5, read-out: Selectivity % inhibition, A2A
# T1 construct: Eurofins Pharma Discovery Services
# T1 sequence (P29274 whole entry): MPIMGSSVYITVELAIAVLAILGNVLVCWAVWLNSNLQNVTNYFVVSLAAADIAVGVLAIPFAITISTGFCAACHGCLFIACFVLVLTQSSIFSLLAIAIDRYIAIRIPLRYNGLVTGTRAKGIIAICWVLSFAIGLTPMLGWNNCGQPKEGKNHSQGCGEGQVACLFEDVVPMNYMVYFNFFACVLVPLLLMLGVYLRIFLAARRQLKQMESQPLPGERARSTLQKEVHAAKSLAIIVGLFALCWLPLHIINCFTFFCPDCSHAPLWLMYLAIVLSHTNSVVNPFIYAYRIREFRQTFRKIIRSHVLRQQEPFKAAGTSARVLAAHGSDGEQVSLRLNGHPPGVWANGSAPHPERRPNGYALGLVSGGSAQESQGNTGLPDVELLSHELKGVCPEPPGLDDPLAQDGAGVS
# [9] = target: T2, SAPK2α (Homo sapiens, UniProt Q16539); experiment: Selectivity panel (Eurofins): p38/SAPK2α kinase; assay type: biochemical; settings: Table 5, read-out: Selectivity % inhibition, SAPK2α
# T2 construct: Eurofins Pharma Discovery Services
# T2 sequence (Q16539 whole entry): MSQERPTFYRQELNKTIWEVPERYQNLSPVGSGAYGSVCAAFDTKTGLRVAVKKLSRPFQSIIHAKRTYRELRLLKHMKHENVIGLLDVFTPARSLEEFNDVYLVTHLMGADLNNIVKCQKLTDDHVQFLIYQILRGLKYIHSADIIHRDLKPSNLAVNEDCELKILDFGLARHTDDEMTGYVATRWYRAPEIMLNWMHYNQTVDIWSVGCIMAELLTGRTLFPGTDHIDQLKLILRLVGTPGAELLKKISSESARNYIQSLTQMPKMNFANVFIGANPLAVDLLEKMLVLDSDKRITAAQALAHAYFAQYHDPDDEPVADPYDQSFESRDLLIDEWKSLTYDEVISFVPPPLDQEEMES
# [10] = tested on: BZD; experiment: Selectivity panel (Eurofins): benzodiazepine receptor BZD; assay type: binding; settings: Table 5
smiles,measurement,setting,value
"CC1(C)c2c[nH]c3cccc(c23)S[C@H]1C(=O)O [3-methyl chuangxinmycin, 3-methyl-chuangxinmycin]",EC50,[1]; RDEB_L1 cells,42 µM
same,"Increase in C7 levels Emax, % vs baseline","[1]; RDEB_L1 cells, at 100 µM",105 ± 13 at 100 % vs baseline
same,EC50,"[2]; Homo sapiens, total C7 AlphaLISA, 48 h, relative EC50, mean ± SD, read-out: Increase in C7 levels EC50",4.6 µM
same,"Increase in C7 levels Emax, % vs baseline",[2],58 at 100 % vs baseline
same,"C7 products induced, western blot",[3],partially upregulated full-length C7
same,"modulation of GO terms related to NMD, readthrough, translation and unfolded protein response",[4],Neither compound 1 nor chuangxinmycin nor 3-methyl-chuangxinmycin showed any impact on these pathways
"C[C@H]1c2c[nH]c3cccc(c23)S[C@H]1C(=O)O [Chuangxinmycin, chuangxinmycin]","Increase in C7 levels Emax, % vs baseline","[1]; RDEB_L1 cells, at 50 µM",22 ± 3 at 50 % vs baseline
same,"C7 products induced, western blot",[3],partially upregulated full-length C7
same,"modulation of GO terms related to NMD, readthrough, translation and unfolded protein response",[4],Neither compound 1 nor chuangxinmycin nor 3-methyl-chuangxinmycin showed any impact on these pathways
Nc1ncc(-c2ccc3cnn(CCO)c3c2)nc1C(=O)NC1C2CC3CC1CC(O)(C3)C2 (centres unmarked) [Compound 3],EC50,[1]; RDEB_L1 cells,1.9 ± 0.12 µM
same,"Increase in C7 levels Emax, % vs baseline","[1]; RDEB_L1 cells, at 3.1 µM",2083 ± 29 at 3.1 % vs baseline
same,EC50,"[5]; Homo sapiens, total C7 AlphaLISA, 48 h, 20 ng/mL TGFß2, relative EC50, mean ± SD, read-out: Increase in C7 levels EC50",3.1 ± 0.008 µM
same,"Increase in C7 levels Emax, % vs baseline","[5]; at 1.25 µM, 20 ng/mL TGFß2",717 ± 229 at 1.25 % vs baseline
same,Cytotox. % inhibition of viability,[6],58% ± 13 at 50 (n=2)
C#Cc1nc(-c2ccncc2)c(-c2ccco2)nc1N [Compound 8],EC50,[1]; RDEB_L1 cells,40 ± 13 µM
same,"Increase in C7 levels Emax, % vs baseline","[1]; RDEB_L1 cells, at 100 µM",86 ± 13.9 at 100 % vs baseline
same,"Increase in C7 levels Emax, % vs baseline",[2],10± 13 at 100 % vs baseline
same,IC50,[7],31 ± 4.1 µM
same,"modulation of GO terms related to NMD, readthrough, translation and unfolded protein response",[4],modulating genes specifically related to cytoplasmic translation and the ribosome
Nc1cnc(-c2ccncc2)c(-c2cccc(F)c2)n1 [Compound 10],"Increase in C7 levels Emax, % vs baseline","[1]; Table 5 SAR, at 50 μM",2.1 ± 16 at 50 % vs baseline
same,inhibition at 3 µM,[8]; at 3 μM,104%
same,inhibition at 10 µM,[8]; at 10 μM,103%
same,inhibition at 30 µM,[8]; at 30 μM,104%
same,inhibition at 3 µM,[9]; at 3 μM,36%
same,inhibition at 10 µM,[9]; at 10 μM,162%
same,inhibition at 30 µM,[9]; at 30 μM,88%
same,"Selectivity % inhibition, BZD",[10]; at 3 μM,0%
same,"Selectivity % inhibition, BZD",[10]; at 10 μM,0%
same,"Selectivity % inhibition, BZD",[10]; at 30 μM,9%
